From patent US20100184815A1 (priority 2008, published 2010)

Experiments:
[1] = tested on: pig liver esterase; assay: Metabolism studies using pig liver esterase; type: in vitro ADME; settings: 37° C.; for Pig Liver Esterase (t1/2 min.) (+) Plasma: pig liver esterase in human plasma protein solution; for half-life at 4.9 µM: pig liver esterase in phosphate buffer pH 7.4, no plasma, read-out: Pig Liver Esterase (t1/2 min.) (−) Plasma
Procedure: The esterase-mediated metabolism of these compounds was studied using commercially available pig liver esterase in the presence and absence of human plasma proteins. The disappearance of parent was monitored over the time course of the incubations using a LC-UV detection system.
A stock solution and working stock solution was prepared for each proprietary compound as described for the human liver microsomal incubations. Working solutions of pig liver esterase in potassium phosphate buffer ([…], pH 7.4) and pig liver esterase in human plasma protein were prepared by dissolving pig liver esterase (2.51 mg) in the phosphate buffer or plasma protein solutions, respectively.
A set of three Eppendorf microfuge tubes (1.5 mL) was appropriately labeled. To each tube was added 1.5 mL of phosphate buffer, pig liver esterase in buffer, or pig liver esterase in human plasma protein solution. These solutions were pre-incubated (37° C., 900 rpm) and the reactions were initiated by adding an aliquot (37.5 μL) of the working solution of proprietary compound to each tube. An aliquot (100 μL) from each tube was removed at time 0, 5, 30, 60, and 120 min and added to a tube containing acetonitrile (200 μL) to stop the reaction.
The samples were centrifuged at 14000 g for 15 minutes at 4° C. The supernatant was transferred to clean labeled HPLC injection vials and stored at −80° C. until analyzed. An aliquot of the supernatant (25 μL) was injected onto the LC-UV system for analysis.
Half lives of a sample of test articles is noted in the following table. Half life was determined in the presence or absence of plasma.

[2] = Metabolism studies using human liver microsomal preparations; type: in vitro ADME
Procedure: Compounds were incubated in pooled human liver microsomes (HLMs) in the presence or absence of an NADPH-generating system. NADPH is required for the activity of cytochrome P450 (CYP) and other oxidative enzymes present in HLMs, but not for esterase activity. An additional incubation was carried out in the absence of HLM to assess compound stability. The disappearance of parent and the appearance of the corresponding acid metabolite were monitored over the time course of the incubations using LC-MS/MS.
A stock solution (20 mM) of each proprietary compound in DMSO was prepared and store at −20° C. until needed. A working stock solution (0.2 mM) was prepared for each proprietary compound by adding an aliquot of the stock solution (10 μL) to acetonitrile (990 μL).
An aliquot of the HLM solution was removed from the −80° C. freezer and placed on ice. Tris Buffer (50 mM, pH 7.4) containing MgCl2 (hexahydrate, 5 mM) was pre-incubated in a 37° C. water bath. A set of Eppendorf microfuge tubes (1.5 mL) was appropriately labeled. To each tube was added Tris buffer with or without the NADPH generating system. An aliquot of pooled HLMs was added to all the incubations except those that were the buffer control.
Tubes were preincubated for 5 min in a shaking incubator bath (37° C., 900 rpm) and the reaction was initiated by adding an aliquot of the proprietary working solution (5 μL). The additions were timed carefully in order to coordinate the sample collections below. A small aliquot (50 μL) was removed at […] and delivered to the respective tubes containing dextrorphan (100 μL of 0.5 μg/mL solution) in dissolved in methanol or acetonitrile. The samples were centrifuged at 14000 g for 15 minutes at 4° C. The supernatant was transferred to clean labeled HPLC injection vials and stored at −80° C. until analyzed. An aliquot of the supernatant […] was added to water (75 μL), mixed and injected onto the LC-MS/MS system for analysis.
“HLM t1/2” represents the observed half life of the compound under conditions that included NADPH, i.e., the CYP system was active. Comparison to the half life of the test article under (−)NADPH conditions, the enzyme predominant ly responsible for the metabolism of the test article. […] Where roughly equal metabolism is seen by each enzyme system, “mixed” is noted in the “Predominant enzyme” column.

[3] = molecular target: T1, Gal-4 hPPARγ (Homo sapiens, UniProt P37231); assay: Gal4-hPPARγ transient transfection reporter assay in Cos cells; type: cell-based; settings: luciferase reporter, 24 hours with compound, scale 1-5, read-out: Gal-4 hPPAR γ EC50 (scaled number)
T1 construct: Plasmids pGal4-hPPARα, pGal4-hPPARγ, pGal4-hPPARδ and pG5-TK-pGL3 were constructed as previously described by Staels, Bart, et al., Nature 1998 Jun; 25
T1 sequence (P37231 238-505 limits assumed): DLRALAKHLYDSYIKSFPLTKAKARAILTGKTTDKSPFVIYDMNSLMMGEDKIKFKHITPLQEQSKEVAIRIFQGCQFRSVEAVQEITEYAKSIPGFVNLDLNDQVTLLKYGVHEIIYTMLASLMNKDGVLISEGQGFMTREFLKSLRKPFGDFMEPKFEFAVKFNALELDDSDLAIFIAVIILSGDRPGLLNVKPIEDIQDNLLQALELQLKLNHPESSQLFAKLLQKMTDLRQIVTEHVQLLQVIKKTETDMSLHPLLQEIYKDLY
Procedure: (§1) Construction of recombinant plasmids. Plasmids pGal4-hPPARα, pGal4-hPPARγ, pGal4-hPPARδ and pG5-TK-pGL3 were constructed as previously described by Staels, Bart, et al., Nature 1998 Jun. 25; 393 (6687): 790-793, by Staels (Institut Pasteur de Lille, FR).
(§2) Transient transfection assays. Cos cells were seeded in 60-mm dishes at a density of 5.5×10^5 cells/dish in Dulbecco's modified Eagle's medium (DMEM) supplemented with 10% fetal calf serum (FCS) and incubated at 37° C. for 24 hours before transfection. Cells were transfected in Opti-MEM (Gibco; Invitrogen, Carlsbad, Calif.) without FCS for 3 hours at 37° C., using polyethylenimine, with reporter and expression plasmids. The plasmid pBluescript (Stratagene, La Jolla, Calif.) was used as carrier DNA to set the final amount of DNA to 5.5 μg/dish. The pCMV-b-galactosidase expression plasmid was cotransfected as a control for transfection efficiency. Transfection was stopped by the addition of DMEM supplemented with 10% FCS, and cells were then incubated at 37° C. After 16 hours, cells were trypsinized and seeded in 96-well plates at the density of 2×10^4 cells/well and incubated for 6 hours in 10% FCS-containing DMEM. Cells were then incubated for 24 hours in DMEM containing 0.2% FCS and increasing concentrations of the compound tested or vehicle (DMSO). At the end of the experiment, cells were washed once with ice-cold PBS, lysed and the luciferase and b-galactosidase assays were performed in a luminometer and spectrophotomer. Transfection efficiencies were normalized with the b-galactosidase activity assay. Half-maximal effective concentration (EC50) was estimated using Prism software (GraphPad). All transfection experiments were performed at least three times.
(§3) In the following tables, proprietary compound EC50 values for hPPAR α, β, δ and γ are shown. The EC50 value is the concentration of a drug that induces a response halfway between the baseline and maximum, and is commonly used as a measure of drug potency. EC50 values are reported on a scale of 1 through 5, wherein the value scale is defined for each receptor as follows: […]

[4] = molecular target: T2, Gal-4 hPPARα (Homo sapiens, UniProt Q07869); assay: Gal4-hPPARα transient transfection reporter assay in Cos cells; type: cell-based; settings: luciferase reporter, 24 hours with compound, scale 1-5, read-out: Gal-4 hPPAR α EC50 (scaled number)
T2 construct: Plasmids pGal4-hPPARα, pGal4-hPPARγ, pGal4-hPPARδ and pG5-TK-pGL3 were constructed as previously described by Staels, Bart, et al., Nature 1998 Jun; 25
T2 sequence (Q07869 200-468 limits assumed): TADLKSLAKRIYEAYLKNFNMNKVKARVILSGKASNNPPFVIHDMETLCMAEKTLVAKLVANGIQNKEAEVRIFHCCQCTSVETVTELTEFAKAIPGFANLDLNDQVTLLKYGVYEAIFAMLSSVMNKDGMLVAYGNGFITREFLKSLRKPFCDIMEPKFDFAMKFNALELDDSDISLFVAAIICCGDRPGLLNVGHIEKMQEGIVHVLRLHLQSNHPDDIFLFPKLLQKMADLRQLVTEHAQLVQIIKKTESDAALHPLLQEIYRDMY
Procedure: as §1, §2, §3

[5] = molecular target: T3, Gal-4 hPPARβ/δ (Homo sapiens, UniProt Q03181); assay: Gal4-hPPARδ transient transfection reporter assay in Cos cells; type: cell-based; settings: luciferase reporter, 24 hours with compound, scale 1-5, read-out: Gal-4 hPPAR β/δ EC50 (scaled number)
T3 construct: Plasmids pGal4-hPPARα, pGal4-hPPARγ, pGal4-hPPARδ and pG5-TK-pGL3 were constructed as previously described by Staels, Bart, et al., Nature 1998 Jun; 25
T3 sequence (Q03181 171-441 limits assumed): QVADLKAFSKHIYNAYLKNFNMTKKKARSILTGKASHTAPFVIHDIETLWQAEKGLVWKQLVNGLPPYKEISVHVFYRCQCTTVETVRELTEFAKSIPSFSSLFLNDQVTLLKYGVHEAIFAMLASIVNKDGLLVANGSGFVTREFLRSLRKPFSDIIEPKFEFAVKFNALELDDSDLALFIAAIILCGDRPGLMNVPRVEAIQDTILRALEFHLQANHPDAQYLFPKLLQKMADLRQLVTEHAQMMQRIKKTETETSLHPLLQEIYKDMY
Procedure: as §1, §2, §3

[6] = pooled human liver microsomes, with NADPH (CYP system active), 37° C.

Structure (SMILES)	Pig Liver Esterase (t1/2 min.) (+) Plasma [1]	half-life at 4.9 µM [1] [min]	HLMs t1/2 (min) [2, 6]	EC50 [3] [nM]	EC50 [4] [nM]	EC50 [5] [nM]	HLMs Predominant Enzyme ([2]; comparison of half life with and without NADPH: Esterase, CYP or Mixed)	half-life ([2]; pH 7.4, pooled human liver microsomes, with NADPH (CYP system active), 37° C., read-out: HLMs t1/2) [min]
C[C@@H](Cc1cn(Cc2ccc(C(C)(C)C)cc2)nn1)OC(=O)c1ccc(SC(C)(C)C(=O)O)cc1 [Compound 133, 4-(1-Carboxy-1-methyl-ethylsulfanyl)-benzoic acid (S)-2-[1-(4-tert-butyl-benzyl)-1H-1,2,3-triazol-4-yl]-1-methyl-ethyl ester]	–	–	–	> 1000	1 to 50	> 1000	Mixed	29
CCCn1c(COC(=O)c2ccc(OC(C)(C)C(=O)O)cc2)nn(Cc2cc(C(F)(F)F)cc(C(F)(F)F)c2)c1=O [Compound 206, 2-(4-(((1-(3,5-bis(trifluoromethyl)benzyl)-5-oxo-4-propyl-4,5-dihydro-1H-1,2,4-triazol-3-yl)methoxy)carbonyl)phenoxy)-2-methylpropanoic acid]	–	–	–	> 1000	201 to 999	> 1000	–	–
CCCn1c(COC(=O)c2ccc(SC(C)(C)C(=O)O)cc2)nn(Cc2cc(F)cc(F)c2)c1=O [Compound 218, 2-(4-(((1-(3,5-difluorobenzyl)-5-oxo-4-propyl-4,5-dihydro-1H-1,2,4-triazol-3-yl)methoxy)carbonyl)phenylthio)-2-methylpropanoic acid]	–	–	–	> 1000	51 to 200	> 1000	–	–
Cc1ccc(Cn2nc(COC(=O)c3ccc(SC(C)(C)C(=O)O)cc3)[nH]c2=O)cc1 [Compound 261, 4-(1-Carboxy-1-methyl-ethylsulfanyl)-benzoic acid 1-(4-methyl-benzyl)-5-oxo-4,5-dihydro-1H-1,2,4-triazol-3-ylmethyl ester]	–	–	–	> 1000	51 to 200	> 1000	–	–
CCCCCCCn1c(C(C)OC(=O)c2ccc(SC(C)(C)C(=O)O)cc2)nn(Cc2ccc(C)cc2)c1=O (centres unmarked) [Compound 264, 4-(1-Carboxy-1-methyl-ethylsulfanyl)-benzoic acid 1-[4-heptyl-1-(4-methyl-benzyl)-5-oxo-4,5-dihydro-1H-1,2,4-triazol-3-yl]-ethyl ester]	–	–	–	51 to 200	< 1	> 1000	–	–
CCCn1c(COC(=O)c2ccc(OC(C)(C)C(=O)O)c(C)c2)nn(Cc2ccc(C(C)(C)C)cc2)c1=O [Compound 266, 4-(1-Carboxy-1-methyl-ethoxy)-3-methyl-benzoic acid 1-(4-tert-butyl-benzyl)-5-oxo-4-propyl-4,5-dihydro-1H-1,2,4-triazol-3-ylmethyl ester]	–	–	–	> 1000	201 to 999	> 1000	–	–

Results, then the compound that gave them:

Pig Liver Esterase (t1/2 min.) (+) Plasma [1]	half-life at 4.9 µM [1] [min]	HLMs t1/2 (min) [2, 6]	EC50 [3] [nM]	EC50 [4] [nM]	EC50 [5] [nM]	HLMs Predominant Enzyme ([2]; comparison of half life with and without NADPH: Esterase, CYP or Mixed)	half-life ([2]; pH 7.4, pooled human liver microsomes, with NADPH (CYP system active), 37° C., read-out: HLMs t1/2) [min]	Structure (SMILES)
Stable	12	Stable	–	–	–	–	–	CCCCCCCCn1c(COC(=O)Cc2ccc(OC(C)(C)C(=O)O)cc2)nn(Cc2ccc(C)cc2)c1=O [Compound 012, 2-methyl-2-(4-(2-((1-(4-methylbenzyl)-4-octyl-5-oxo-4,5-dihydro-1H-1,2,4-triazol-3-yl)methoxy)-2-oxoethyl)phenoxy)propanoic acid]
Stable	19	Stable	–	–	–	–	–	CCCCCCn1c(COC(=O)Cc2ccc(OC(C)(C)C(=O)O)cc2)nn(Cc2ccc(C)cc2)c1=O [Compound 014, 2-(4-(2-((4-hexyl-1-(4-methylbenzyl)-5-oxo-4,5-dihydro-1H-1,2,4-triazol-3-yl)methoxy)-2-oxoethyl)phenoxy)-2-methylpropanoic acid]
–	–	–	> 1000	51 to 200	> 1000	–	–	CCCCCCn1c(COC(=O)c2ccc(OC(C)(C)C(=O)O)cc2)nn(Cc2ccc(C(F)(C(F)(F)F)C(F)(F)F)cc2)c1=O [Compound 204, 2-(4-(((4-hexyl-5-oxo-1-(4-(perfluoropropan-2-yl)benzyl)-4,5-dihydro-1H-1,2,4-triazol-3-yl)methoxy)carbonyl)phenoxy)-2-methylpropanoic acid]
–	–	–	> 1000	201 to 999	> 1000	–	–	CCCn1c(COC(=O)c2ccc(OC(C)(C)C(=O)O)cc2)nn(Cc2ccc(SC(F)(F)F)cc2)c1=O [Compound 210, 2-methyl-2-(4-(((5-oxo-4-propyl-1-(4-(trifluoromethylthio)benzyl)-4,5-dihydro-1H-1,2,4-triazol-3-yl)methoxy)carbonyl)phenoxy)propanoic acid]
